Here are results for two molecules from patent US11987543B1, “8-(4-bromobenzylideneamino)naphthalene-1,3-disulfonic acid as an antioxidant compound” (KING FAISAL UNIVERSITY, priority 2023, dated 2024).

The assay can be described thus: DPPH radical scavenging antioxidant test. The class given is biochemical. The conditions noted are these: for A (absorbance read against a blank at 517 nm) / Inhibition (radical scavenging inhibition): 0.2 mL DPPH (0.75 mM), compound 3 μM in ethanol, 30 min incubation in the dark. As for the experimental part:
The antioxidant properties of the 8-(4-bromobenzylideneamino)naphthalene-1,3-disulfonic acid were studied by adding 0.2 mL DPPH (0.75 mM)) to compound 8-(4-bromobenzylideneamino)naphthalene-1,3-disulfonic acid (III) (3 μM) in ethanol. After 30 min of incubation in the dark, the absorbance was read against a blank at 517 nm. Ascorbic acid (vitamin C) was used as standard antioxidants (positive control). A blank sample was prepared by 0.2 ml of DPPH in 3 ml ethanol. A negative control sample was run using ethanol instead of the sample. The radical scavenging inhibition was calculated using the following equation: […]

As for `O=C1O[C@H]([C@@H](O)CO)C(O)=C1O` [vit c, Ascorbic acid, reference compound], the “A (absorbance read against a blank at 517 nm)” value worked out at 0.12. For the same molecule, the “Inhibition (radical scavenging inhibition)” value (517 nm) came out at 74%.
Turning to `O=S(=O)(O)c1cc(S(=O)(=O)O)c2c(/N=C/c3ccc(Br)cc3)cccc2c1` [Product III, 8-(4-bromobenzylideneamino)naphthalene-1,3-disulfonic acid], the “A (absorbance read against a blank at 517 nm)” value worked out at 0.21. For the same molecule, the “Inhibition (radical scavenging inhibition)” value (517 nm) is listed as 50%. The “antioxidant potential compared to vitamin C (in words)” value (DPPH in vitro test, vitamin C as positive control, 517 nm) is given as “high potential as an antioxidant compared to vitamin C”.
